Test results published in patent publication US11332438B2, “Creatine prodrugs, compositions and methods of use thereof” (Ultragenyx Pharmaceutical Inc., priority 2017, dated 2022).
“Also recorded” adds a separate entry of the source. Where two headings read alike, the source gives them in different places.

Legend:
[1] = rcm bond, DCM, 50.0 °C
ARPE-19 cells = assay: Creatine prodrug uptake and d3-creatine release in ARPE-19 cells (Table 4A); assay type: cell-based, human; conditions: 50 μM, 6 h, cytosol fraction, corrected for total protein
Procedure: At the end of the incubation, supernatant will be collected from each well to assess prodrug recovery. Cells are then washed 3× with PBS. Plates, prodrugs in supernatant, prodrugs in serum-free medium are stored at −80° C. until harvest (within 5 days). On the day of extraction, 130 uL of lysis buffer (10 mM Tris pH 7.4) with EDTA-free protease inhibitors is added to each well and cells are removed using a cell scraper. Lysates are further homogenized using a handheld pestle and then centrifuged at 16,000 g, […], for 10 minutes to collect cytosol fraction. Pellets will be stored at −80° C. until further analysis. A 4× volume of stop solution (80% ACN/20% water) will be added to the cytosol fraction, supernatant and medium. Samples will be centrifuged at 15,890 g (13,000 rpm) at 4° C. for 10 mins. Supernatant will be collected and stored at −80° C. within 5 days prior to LC-MS/MS analysis. Dosing solutions for each prodrug (10 μM) will be assayed to verify concentration. Cells alone with vehicle will serve as controls to assess background signal for LC-MS/MS. Two independent runs of experiment will be conducted.
Nine fatty acid amide creatine prodrugs were tested in human ARPE-19 cells to assess prodrug uptake and d3-Cr release inside the cells. 50 μM of prodrug was incubated in culture medium with the cells and the cells were harvested at 6 h. Quantitation of prodrugs, d3-Cr (d3-creatine) and d3-Cm (d3-creatinine) in the cytosol fraction was corrected for total protein concentration.

[2] = Prodrug cleavage in human brain homogenates (HBH): d3-Cr release and d3-Crn cyclization; assay type: in vitro ADME; conditions: for Prodrug Cleavage Human BH d3-Crn release / Prodrug Cleavage Human BH net d3-Cr release: 200 μM prodrug, 3 h, % of nominal input; for Prodrug Cleavage Human BH net d3-Cr release: negative control subtracted
Procedure: (§1) For assessment of the ability of prodrugs to release creatine, and to release creatine preferentially to unwanted cyclization to creatinine, d3-labeled (deuterium labeled methyl group) prodrugs are incubated with brain homogenates (e.g., mouse, human) specially prepared to preserve FAAH activity or with rFAAH for direct cleavage study. The use of d3-labelled prodrugs is essential in order to distinguish prodrug-derived creatine (d3-creatine) from high concentrations of endogenous (non-labeled) creatine. […] Prodrugs are tested at final concentrations of 20 μM and 200 μM. Approximately 3-4 mg of homogenate is used for each reaction. Co-factor (NADPH) is included at a final concentration of 1 mM. FAAH activity is confirmed by conversion of 7-amino-4-methyl Coumarin-Arachidonamide to 7-amino-4-methyl Coumarin by fluorescent assay. Negative controls include incubations without brain homogenate/rFAAH (but with NADPH) or 65° C. heat inactivated brain homogenate/rFAAH to assess non-enzymatic prodrug cleavage under the conditions of the assay and FAAH inhibitor […] at the concentration of 1 μM. Prodrug incubations are prepared by addition of 8 μL of prodrug stock solution (500 or 5000 μM in DMSO or DMSO/methanol) to assay buffered, followed by addition of brain homogenate/rFAAH. […] The samples are centrifuged at 15890×g for 10 minutes at 4° C., followed by transfer of the supernatants for storage at −20° C. pending LC-MS/MS analysis. Sample supernatants are analyzed by LC-MS/MS for determination of d3-prodrug, d3-creatine and d3-creatinine levels.
(§2) Deuterated creatine prodrugs were tested in 3 different in vitro assays to assess d3-creatine (d3-Cr) release and cyclization to form d3-creatinine (d3-Crn). These assays were 1) direct cleavage with recombinant human FAAH enzyme (rFAAH), 2) cleavage in mouse brain homogenates (MBH), and 3) human brain homogenates (HBH).
(§3) Creatine prodrug cleavage efficiency was determined by percentage of net d3-Cr release in μM (positive reaction subtracted from negative control of no brain homogenate/rFAAH or inactivated brain homogenate/rFAAH) over nominal input concentration of 200 μM prodrug at 3 h. Propensity for creatinine cyclization was determined by percentage of d3-Crn generated in μM in positive reaction over nominal input concentration of 200 μM prodrug at 3 h.

[3] = target: T1, recombinant human FAAH enzyme (rFAAH) (Homo sapiens, UniProt O00519); assay: Direct prodrug cleavage with recombinant human FAAH enzyme (rFAAH): d3-Cr release and d3-Crn cyclization; assay type: biochemical; conditions: 200 μM prodrug, 3 h; result in words
T1 sequence (O00519 1-579): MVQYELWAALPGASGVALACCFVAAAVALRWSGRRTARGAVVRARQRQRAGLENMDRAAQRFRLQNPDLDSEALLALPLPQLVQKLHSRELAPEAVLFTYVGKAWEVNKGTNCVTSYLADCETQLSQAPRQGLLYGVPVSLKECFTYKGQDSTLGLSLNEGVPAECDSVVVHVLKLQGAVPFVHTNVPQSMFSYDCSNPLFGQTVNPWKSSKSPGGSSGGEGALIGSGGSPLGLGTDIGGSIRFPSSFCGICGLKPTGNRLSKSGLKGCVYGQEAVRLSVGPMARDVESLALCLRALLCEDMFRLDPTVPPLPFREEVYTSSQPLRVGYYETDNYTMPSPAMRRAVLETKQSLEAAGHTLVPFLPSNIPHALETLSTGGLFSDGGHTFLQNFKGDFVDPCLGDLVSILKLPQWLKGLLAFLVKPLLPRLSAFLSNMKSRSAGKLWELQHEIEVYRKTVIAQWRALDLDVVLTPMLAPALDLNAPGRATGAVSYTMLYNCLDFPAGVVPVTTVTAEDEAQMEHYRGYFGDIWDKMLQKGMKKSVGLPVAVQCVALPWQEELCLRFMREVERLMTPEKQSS
Procedure: as §1, §2, §3

[4] = Chemical stability in phosphate buffered saline (PBS); assay type: physicochemical; conditions: Table 2A, 50 μM prodrug
Method in brief: (§4)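 Incubations used 50 μM compound at 37 °C in phosphate buffered saline, fasted simulated intestinal fluid without pancreatin, or fasted simulated gastric fluid without pepsin.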

[5] = Chemical stability in simulated gastric fluid (SGF) without pepsin; assay type: physicochemical; conditions: Table 2A, 50 μM prodrug
Method in brief: as §4

[6] = Liver microsome stability, mouse; assay type: in vitro ADME; conditions: liver microsomes, pH 7.4, Table 2A, read-out: Microsome Stability Mouse t1/2
Method in brief: (§5)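 Test compound incubated with mouse or human liver microsomes and NADPH in 0.1 M potassium phosphate, 1.0 mM EDTA, pH 7.4, with a 60-min no-NADPH control. Samples quenched with ACN containing internal standard at 0, 5, 10, 20, 30 and 60 min, then analysed by LC/MS.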

[7] = In vivo IV dosing in CrT KO mice: prodrug, d3-Cr and d3-Crn in brain (Table 5); conditions: for AUClast prodrug in the brain: BQL prodrug = 41.2 ng/mL
Procedure: A creatine prodrug is administered as an intravenous bolus injection to groups of three to six adult male CD1 mice at an appropriate creatine prodrug dose equivalent per kg body weight. Animals are conscious at the time of the experiment. Blood samples (0.3 mL) are obtained via a jugular vein cannula at intervals over 8 hours following IV dosing. Blood is processed into plasma, then the plasmais immediately frozen at −80° C. until analyzed by LC-MS/MS. Samples may also be taken form the CSF or other appropriate biological fluid. Brains were collected and flash frozen immediately in liquid nitrogen. Brains were homogenized in 100 mM KPI buffer with a cocktail of anti-proteases on the same day as the sample preparation required for LC-MS/MS analysis.
Several prodrugs with either free COOH group and ester linkage and macrocycles were selected for IV dosing in animal study to assess PK and d3-Cr release in brain in vivo. Prodrugs were IV dosed in CrT KO mice at 10, 15, or 25 mg/kg in animal studies. Mouse brain homogenates (MBH) were prepared from brains collected from mice after dosing. Levels of prodrug, d3-Cr and d3-Crn were quantified in brain and expressed in brain concentration (for macrocycle prodrugs) or AUC (for linear prodrugs) over time. Very few prodrugs were detected in MBH.

[8] = Plasma stability, mouse plasma; assay type: in vitro ADME; conditions: Table 2A, 37 °C, read-out: Plasma Stability Mouse t1/2
Method in brief: (§6)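 Test article, 1 µM final (from 10% DMSO/water), incubated at 37 °C in plasma adjusted to pH 7.4 if needed; samples at 0, 2, 5, 15 and 30 min quenched with ice-cold 80% acetonitrile. Remaining compound by LC-MS/MS; half-life in minutes calculated.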

[9] = Plasma stability, human plasma; assay type: in vitro ADME; conditions: Table 2A, 37 °C, read-out: Plasma Stability Human t1/2
Method in brief: as §6

[10] = Liver microsome stability, human; assay type: in vitro ADME; conditions: liver microsomes, pH 7.4, Table 2A, read-out: Microsome Stability Human t1/2
Method in brief: as §5

[11] = IV 10 mg/kg, CrT KO mouse brain
[12] = in vitro cleavage assays (Table 3A)

SMILES	prodrug, Cellular Uptake (ARPE-19 cells)	Chemical Stability PBS % T0 at 2 hours at 37 °C. [4] [%]	Chemical Stability SGF, no enzyme % T0 at 2 hours at 37 °C. [5] [%]	half-life at 10 μM [6] [h]	AUClast prodrug in the brain [7, 11]	half-life [8] [h]	half-life [9] [h]	half-life at 10 μM [10] [h]	further results
[2H]C([2H])([2H])N(C(N)=NC(=O)OCc1ccccc1)N(CC(=O)O)C(=N)NC(=O)CCCCCC=C	–	–	–	–	–	–	–	–	ring closure, isolated yield ([1]; the molecule shown is the open-chain precursor, 17-membered ring, Grubbs II (10 mol%), 2.4 mM): 33%
Cl.[2H]C([2H])([2H])N(CC(=O)OC(C)C)C(=N)NC(=O)CCCCCCC/C=C\CCCCCCCC [Compound 45]	BQL	54	102	–	–	–	–	–	d3-Cr, Cellular Uptake (ARPE-19 cells): 0.74 nmol/mg protien; d3-Crn, Cellular Uptake (ARPE-19 cells): 1.03 nmol/mg protien; Prodrug Cleavage Human BH d3-Crn release [2]: 22.0%; Prodrug Cleavage Human BH net d3-Cr release [2]: 0.4%; Prodrug Cleavage rFAAH d3-Crn release (yes/no) [3]: yes; Prodrug Cleavage rFAAH net d3-Cr release (yes/no) [3]: no
Cl.[2H]C([2H])([2H])N(CC(=O)OCCCCCCC)C(=N)NC(=O)CCCCCCCCCC [Compound 5, Heptyl N-(methyl-d3)-N—(N-undecanoylcarbamimidoyl)glycinate Hydrochloride]	BQL	23	73	< 0.0833	BQL	< 0.0833	0.0833	< 0.0833	–
[2H]C([2H])([2H])N(CC(=O)O)C(=N)NC(=O)CCCCCCCCCCC [Compound 30]	29.2 nmol/mg protien	145	62	> 2.42	–	2.7	> 3	1.57	–
[2H]C([2H])([2H])N(CC(=O)OC(C)C)C(=N)NC(=O)CCCCCCCCCCCC [Compound 10]	–	–	–	–	BQL	–	–	–	–
[2H]C([2H])([2H])N1CC(=O)OC2(CC/C=C/CCCCCC(=O)N/C1=N/C(=O)OCc1ccccc1)CCOC2 (centres unmarked)	–	–	–	–	–	–	–	–	ring closure, isolated yield ([1]; from [2H]C([2H])([2H])N(CC(=O)OC1(CCC=C)CCOC1)/C(=N\C(=O)OCc1ccccc1)NC(=O)CCCCCC=C, 17-membered ring, Grubbs II (10 mol%), 1.95 mM, 2.0 h): 78%
[2H]C([2H])([2H])N1CC(=O)OCCCC/C=C\CCCCCCCC(=O)N/C1=N/C(=O)OC(C)(C)C	–	–	–	–	–	–	–	–	ring closure, isolated yield ([1]; from [2H]C([2H])([2H])N(CC(=O)OCCCCC=C)C(=NC(=O)OC(C)(C)C)NC(=O)CCCCCCCC=C, 20-membered ring, Grubbs II): 90%
[2H]C([2H])([2H])N(CC(=O)[O-])C(=N)NC(=O)CCCCCCC/C=C\CCCCCCCC.[Na+] [Compound 1, Sodium N-(methyl-d3)-N—(N-oleoylcarbamimidoyl)glycinate]	24.8 nmol/mg protien	76	74	1.38	–	> 3	> 3	2.22	–
[2H]C([2H])([2H])N(CC(=O)[O-])C(=N)NC(=O)CCCCCC.[Na+] [Compound 13]	–	97	94	15.2	BQL	> 3	> 3	10.8	crossing of BBB (in words) ([7]; CrT KO mice, IV dosing): did not seem to cross BBB; AUClast d3-Cr in the brain ([7]; IV 10 mg/kg, CrT KO mouse brain, BQL d3-Cr = 13.7 ng/mL): BQL; AUClast d3-Crn in the brain ([7]; IV 10 mg/kg, CrT KO mouse brain, BQL d3-Crn = 1.5 ng/mL): BQL
Cl.[2H]C([2H])([2H])N(CC(=O)OC(C)C)C(=N)NC(=O)CCCCCCCCCC [Compound 12-HCl]	–	99	117	–	–	–	–	–	Prodrug Cleavage Human BH d3-Crn release [2]: 265.7%; Prodrug Cleavage Human BH net d3-Cr release [2]: 2.9%; d3-Cr release in vitro (in words) [2, 12]: small amount of d3-Cr; d3-Crn (creatinine) cyclization in vitro (in words) [2, 12]: predominantly cyclized into creatinine; also recorded: predominantly creatinine cyclization; d3-Cr/d3-Crn release ratio in vivo (in words) ([7]; brain, CrT KO mice): favorable d3-Cr/d3-Crn ratio
[2H]C([2H])([2H])N(CC(=O)[O-])C(=N)NC(=O)c1cccnc1.[Na+] [Compound 20]	BQL	101	78	> 2.42	–	> 3	> 3	> 2.42	d3-Cr, Cellular Uptake (ARPE-19 cells): BQL; d3-Crn, Cellular Uptake (ARPE-19 cells): BQL
[2H]C([2H])([2H])N(CC(=O)OC(C)C)C(=N)NC(=O)CCCCCCCCCC [Compound 12]	–	–	–	–	BQL	–	–	–	–
